What was measured:
melanoma TILs [1] = assay: Cell counts of melanoma TILs expanded in pre-REP and REP with CPI-444; format: cell-based, human; conditions: pre-REP 11 days, melanoma tumor fragments pooled
Protocol: The expression of A2aR on TILs and the effect of an A2aR antagonist on TILs was evaluated by culturing melanoma tumor fragments or lung tumor fragments in both pre-REP and the REP phases either with or without the addition of CPI-444 (ciforadenant), an A2aR antagonist, which was obtained commercially from MedChemExpress, Inc., Monmouth Junction, N.J., USA. The experimental procedure is similar to that of Example 3 and Example 10, with the changes as described below.
Melanoma tumors and lung tumors were obtained from patients. The tumor samples were generally fragmented using sharp dissection into small pieces of about 3 mm×3 mm×3 mm. The TILs were cultured from these fragments using mechanical dissociation, using scalpel and forceps. Repeated cycles of mechanical dissociation and mixing were applied until only small tissue pieces are present. At the end of this process, the tumor fragments were placed into pre-REP culture. […]
After TIL harvesting, the TILs are phenotypically analyzed: (1) the total number of cells were counted with an automated cell counter; (2) Flow cytometry was used to determine the fraction of TILs that were CD4^+, CD8^+, within the subset of memory T-Cells, and to determine the presence/absence of A2aR and the expression level of A2aR. […]

lung TILs = assay: Flow cytometry of CD8+ and CD4+ subsets, lung TILs expanded with CPI-444; format: cell-based, human; conditions: lung TIL cultures
Text: (§1) After TIL harvesting, the TILs are phenotypically analyzed: (1) the total number of cells were counted with an automated cell counter; (2) Flow cytometry was used to determine the fraction of TILs that were CD4^+, CD8^+, within the subset of memory T-Cells, and to determine the presence/absence of A2aR and the expression level of A2aR.
(§2) FIG. 43 illustrates the results of flow cytometry analysis of CD8^+ and CD4^+ subsets for melanoma TILs obtained after the addition of the A2AR antagonist to pre-REP and REP cultures under various conditions. FIG. 44 and FIG. 45 illustrates flow cytometry analysis of CD8^+ and CD4^+ subsets for lung TILs (first and second lung tumor, respectively) obtained after the addition of CPI-444 to pre-REP and REP cultures under various conditions.

melanoma TILs [2] = assay: Flow cytometry of CD8+ and CD4+ subsets, melanoma TILs expanded with CPI-444; format: cell-based, human; conditions: melanoma TIL cultures treated with A2aR antagonist
Text: as §1, §2

peripheral blood B cells = conditions: cynomolgus monkeys; doses from 0.001-100 mg/kg; two experiments; WO 2015/119923; cited from earlier work

Row | Molecule | Cell Count at end or preREP Culture (Millions of Cells) (melanoma TILs [1]; IL-2 + 12 nM CPI-444/100,000 Cells) | Cell Count at end or preREP Culture (Millions of Cells) (melanoma TILs [1]; IL-2 + 48 nM CPI-444/100,000 Cells) | CD8+ population (lung TILs; at the 12 nM, 48 nM and 32 μM concentrations) | CD8+ TIL populations, response to 8 μM versus 32 μM (lung TILs; second tumor) | CD8+ population (melanoma TILs [2]) | peripheral blood B cell numbers (peripheral blood B cells)
1 | Cc1ccc(-c2nc(N)nc3c2nnn3Cc2cccc(CO[C@H]3CCOC3)n2)o1 [CPI-444, 7-(5-methylfuran-2-yl)-3-[[6-[[(3S)-oxolan-3-yl]oxymethyl]pyridin-2-yl]methyl]triazolo[4,5-d]pyrimidin-5-amine] | 8.7 Millions of Cells | 12.8 Millions of Cells | increase | modulated differently | decrease | –
2 | PF-05082566: fully human immunoglobulin G2-lambda anti-4-1BB (CD137) agonist monoclonal antibody, Pfizer; SEQ ID NO:11 and 12 | – | – | – | – | – | either unchanged or decreased
